Measurements published in US12421254B2, “KRAS modulators and uses thereof” (Quanta Therapeutics, Inc., priority 2023, dated 2025).

Tests used:
[1] = target: GST-tagged KRAS-G12V (2-169) (Homo sapiens, UniProt P01116, G12V); assay: Nucleotide exchange assay (NEA), SOS-mediated, HTRF, KRAS G12V; assay type: biochemical; conditions: Table 4; IC50 extracted at 90 min; 80 nM SOS
Source text: (§1) This activity is tightly regulated by GTPase activating proteins (GAPs) and guanine nucleotide exchange factors (GEFs). GEFs, such as SOS1/2, activate Ras proteins by exchanging GDP for GTP, thus returning Ras to its active conformation (Simanshu, Nissley, & McCormick, 2017). […] Homogenous time resolved fluorescence (HTRF) was used to detect SOS-mediated binding of a fluorescent GTP analog, GTP-DY-647P1 (Jena Biosciences NU-820-647P1) to GST-tagged KRAS-G12D (2-169) or to GST-tagged KRAS-G12V (2-169, Reaction Biology, MSC-11-540).
(§2) GST-tagged KRAS-G12D (2-169) and anti-GST MAb Tb Cryptate Gold (CisBio 61GSTTLB) were diluted into assay buffer (20 mM HEPES, pH 7.3, 150 mM NaCl, 5 mM MgCl2, 0.05% BSA 0.0025% NP40, 1 mM DTT) to prepare a 2.5× donor solution. 5× compound was added to the protein mixture and incubated for 1 h at RT. 2.5× acceptor solution containing SOS1cat (564-1049, Reaction Biology MSC-11-502) and GTP-DY-647P1 were then added to the donor KRAS mixture such that the final concentration of the reaction contained 0.25 nM GST-tagged KRAS-G12D (2-169), 20 nM SOScat, and 150 nM GTP-DY-647P1. The reaction was monitored using at RT with the Envision multimode plate reader (Ex/Em 337/665, […]) up to 90 minutes at 5 minute intervals. To monitor KRAS-G12V SOS-mediated nucleotide exchange, 80 nM SOS was added to reaction instead of 20 nM. All other components were the same as previously described. Data was blanked to reactions without SOS1 and % inhibition was calculated such that DMSO only =0% and blank=100%. Curve fitting was done using a 4 parameter fit. Reported IC50 values were extracted at 30 min and 90 min for the KRAS-G12D and KRAS-G12V assays, respectively.

[2] = target: GST-tagged KRAS-G12D (2-169) (Homo sapiens, UniProt P01116, G12D); assay: Nucleotide exchange assay (NEA), SOS-mediated, HTRF, KRAS G12D; assay type: biochemical; conditions: Table 4; IC50 extracted at 30 min; 20 nM SOScat; read-out: NEA G12D IC50
Source text: as §1, §2
NEA KRAS G12D IC50 (uM) values of selected compounds are depicted in Table 2 with compounds having a value <0.01 uM as ++++; ≥0.01 uM to 0.1 uM as +++; ≥0.1 uM to 1 uM as ++; ≥1 uM to 20 uM as +; and ≥20 uM as NA.

Chain of GST-tagged KRAS-G12D (2-169) (P01116 2-169 isoform P01116-2 G12D): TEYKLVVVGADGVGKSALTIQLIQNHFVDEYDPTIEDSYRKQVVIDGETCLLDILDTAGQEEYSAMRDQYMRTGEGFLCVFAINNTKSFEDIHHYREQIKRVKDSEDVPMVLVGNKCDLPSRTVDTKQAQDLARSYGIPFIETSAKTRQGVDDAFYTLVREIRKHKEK
Chain of GST-tagged KRAS-G12V (2-169) (P01116 2-169 isoform P01116-2 G12V): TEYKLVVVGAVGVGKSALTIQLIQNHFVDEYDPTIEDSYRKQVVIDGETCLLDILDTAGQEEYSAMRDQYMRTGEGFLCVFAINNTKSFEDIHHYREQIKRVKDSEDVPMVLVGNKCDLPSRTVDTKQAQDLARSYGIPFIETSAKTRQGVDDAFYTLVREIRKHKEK

Row | Compound | IC50 [1] [nM] | IC50 [2] [nM]
1 | N#Cc1c(N)sc2c1C1(CCC2)CN(c2nc(OCC3(C#N)CC3)nc(OC[C@@]34CCCN3C[C@H](F)C4)n2)C1 [Compound 54, 2-amino-1′-[4-[(1-cyanocyclopropyl)methoxy]-6-[[(2R,8S)-2-fluoro-1,2,3,5,6,7-hexahydropyrrolizin-8-yl]methoxy]-1,3,5-triazin-2-yl]spiro[6,7-dihydro-5H-benzothiophene-4,3′-azetidine]-3-carbonitrile] | 10 to 100 | 100 to 1000
2 | CCN(c1nc(OC[C@@]23CCCN2C[C@H](F)C3)nc(N2CC3(C2)SCc2sc(N)c(C#N)c23)n1)C(C)c1cccnc1N (stereo partly drawn) [Compound 144, 2-amino-1′-[4-[1-(2-amino-3-pyridyl)ethyl-ethyl-amino]-6-[[(2R,8S)-2-fluoro-1,2,3,5,6,7-hexahydropyrrolizin-8-yl]methoxy]-1,3,5-triazin-2-yl]spiro[6H-thieno[3,4-b]thiophene-4,3′-azetidine]-3-carbonitrile] | < 10 | < 10
3 | N#Cc1c(N)sc2c1C1(CC2)CN(c2nc(OC[C@@]34CCCN3C[C@H](F)C4)nc(N(CCO)Cc3c[nH]nc3Cl)n2)C1 [Compound 151, 2-amino-1′-[4-[(3-chloro-1H-pyrazol-4-yl)methyl-(2-hydroxyethyl)amino]-6-[[(2R,8S)-2-fluoro-1,2,3,5,6,7-hexahydropyrrolizin-8-yl]methoxy]-1,3,5-triazin-2-yl]spiro[5,6-dihydrocyclopenta[b]thiophene-4,3′-azetidine]-3-carbonitrile] | 100 to 1000 | 1000 to 20000
4 | N#Cc1c(N)sc2c1C1(CN(c3nc(OC[C@@]45CCCN4C[C@H](F)C5)nc(N4C5CNCC4CC(=O)C5)n3)C1)SC2 [Compound 276, 2-amino-1′-[4-[[(2R,8S)-2-fluoro-1,2,3,5,6,7-hexahydropyrrolizin-8-yl]methoxy]-6-(7-oxo-3,9-diazabicyclo[3.3.1]nonan-9-yl)-1,3,5-triazin-2-yl]spiro[6H-thieno[3,4-b]thiophene-4,3′-azetidine]-3-carbonitrile] | 10 to 100 | 100 to 1000
5 | N#Cc1c(N)sc2c1C1(CN(c3nc(OC[C@@]45CCCN4C[C@H](F)C5)nc(N4CC5CC(=O)CC(C4)N5)n3)C1)SC2 [Compound 277, 2-amino-1′-[4-[[(2R,8S)-2-fluoro-1,2,3,5,6,7-hexahydropyrrolizin-8-yl]methoxy]-6-(7-oxo-3,9-diazabicyclo[3.3.1]nonan-3-yl)-1,3,5-triazin-2-yl]spiro[6H-thieno[3,4-b]thiophene-4,3′-azetidine]-3-carbonitrile] | < 10 | 10 to 100
6 | CCN(c1nc(OCC2(CN(C)C)CCCN2)nc(N2CC3(C2)SCc2sc(N)c(C#N)c23)n1)[C@H](C)c1cccnc1N (stereo partly drawn) [Compound 225, 2-amino-1′-[4-[[(1R)-1-(2-amino-3-pyridyl)ethyl]-ethyl-amino]-6-[[2-[(dimethylamino)methyl]pyrrolidin-2-yl]methoxy]-1,3,5-triazin-2-yl]spiro[6H-thieno[3,4-b]thiophene-4,3′-azetidine]-3-carbonitrile] | < 10 | 10 to 100
7 | C[C@@]1(O)CCCN(c2nc(OC[C@@]34CCCN3C[C@H](F)C4)nc(N3CCC4(CCCc5sc(N)c(C#N)c54)C3)n2)C1 (stereo partly drawn) [Compound 60, 2-amino-1′-[4-[[(2R,8S)-2-fluoro-1,2,3,5,6,7-hexahydropyrrolizin-8-yl]methoxy]-6-[(3R)-3-hydroxy-3-methyl-1-piperidyl]-1,3,5-triazin-2-yl]spiro[6,7-dihydro-5H-benzothiophene-4,3′-pyrrolidine]-3-carbonitrile] | 1000 to 20000 | 1000 to 20000
8 | CC(Nc1nc(OC[C@@]23CCCN2C[C@H](F)C3)nc(N2CC3(CCc4sc(N)c(C#N)c43)C2)n1)c1cccnc1N (stereo partly drawn) [Compound 88, 2-amino-1′-[4-[1-(2-amino-3-pyridyl)ethylamino]-6-[[(2R,8S)-2-fluoro-1,2,3,5,6,7-hexahydropyrrolizin-8-yl]methoxy]-1,3,5-triazin-2-yl]spiro[5,6-dihydrocyclopenta[b]thiophene-4,3′-azetidine]-3-carbonitrile] | < 10 | 100 to 1000
9 | C[C@H](c1cccnc1N)N(C)c1nc(OC[C@@]23CCCN2C[C@H](F)C3)nc(N2CCC3(CCCc4sc(N)c(C#N)c43)C2=O)n1 (single isomer, unassigned) [Compound 175A, (*)-2-amino-1′-(4-(((R)-1-(2-aminopyridin-3-yl)ethyl)(methyl)amino)-6-(((2R,7aS)-2-fluorotetrahydro-1H-pyrrolizin-7a(5H)-yl)methoxy)-1,3,5-triazin-2-yl)-2′-oxo-6,7-dihydro-5H-spiro[benzo[b]thiophene-4,3′-pyrrolidine]-3-carbonitrile] | < 10 | 10 to 100
10 | CCN(c1nc(OC[C@@]23CCCN2C[C@H](F)C3)nc(N2CC3(C2)c2c(sc(N)c2C#N)CN3CC(F)F)n1)[C@H](C)c1cccnc1N [Compound 227, 2-amino-1′-[4-[[(1R)-1-(2-amino-3-pyridyl)ethyl]-ethyl-amino]-6-[[(2R,8S)-2-fluoro-1,2,3,5,6,7-hexahydropyrrolizin-8-yl]methoxy]-1,3,5-triazin-2-yl]-5-(2,2-difluoroethyl)spiro[6H-thieno[2,3-c]pyrrole-4,3′-azetidine]-3-carbonitrile] | 10 to 100 | 100 to 1000
11 | CC(c1ccccc1N)N(C)c1nc(OC[C@@]23CCCN2C[C@H](F)C3)nc(N2CC3(CCc4sc(N)c(C#N)c43)C2)n1 (stereo partly drawn) [Compound 121, 2′-amino-1-(4-((1-(2-aminophenyl)ethyl)(methyl)amino)-6-(((2R,7aS)-2-fluorotetrahydro-1H-pyrrolizin-7a(5H)-yl)methoxy)-1,3,5-triazin-2-yl)-5′,6′-dihydrospiro[azetidine-3,4′-cyclopenta[b]thiophene]-3′-carbonitrile] | ≥ 20000 | ≥ 20000
12 | N#Cc1c(N)sc2c1C1(CC2)CN(c2nc(OC[C@@]34CCCN3C[C@H](F)C4)nc(OC3CCOC3)n2)C1 (stereo partly drawn) [Compound 78, 2-amino-1′-[4-[[(2R,8S)-2-fluoro-1,2,3,5,6,7-hexahydropyrrolizin-8-yl]methoxy]-6-tetrahydrofuran-3-yloxy-1,3,5-triazin-2-yl]spiro[5,6-dihydrocyclopenta[b]thiophene-4,3′-azetidine]-3-carbonitrile; formic acid] | 100 to 1000 | 1000 to 20000
13 | CN(Cc1c(O)ccnc1N)c1nc(OC[C@@]23CCCN2C[C@H](F)C3)nc(N2CC3(C2)SCc2sc(N)c(C#N)c23)n1 [Compound 182, 2-amino-1′-[4-[(2-amino-4-hydroxy-3-pyridyl)methyl-methyl-amino]-6-[[(2R,8S)-2-fluoro-1,2,3,5,6,7-hexahydropyrrolizin-8-yl]methoxy]-1,3,5-triazin-2-yl]spiro[6H-thieno[2,3-c]thiophene-4,3′-azetidine]-3-carbonitrile] | 10 to 100 | 10 to 100
14 | CC(c1ccc(P(C)(C)=O)cc1N)N(C)c1nc(OC[C@@]23CCCN2C[C@H](F)C3)nc(N2CC3(C2)SCc2sc(N)c(C#N)c23)n1 (stereo partly drawn) [Compound 231, 2′-amino-1-(4-((1-(2-amino-4-(dimethylphosphoryl)phenyl)ethyl)(methyl)amino)-6-(((2R,7aS)-2-fluorotetrahydro-1H-pyrrolizin-7a(5H)-yl)methoxy)-1,3,5-triazin-2-yl)-6′H-spiro[azetidine-3,4′-thieno[3,4-b]thiophene]-3′-carbonitrile] | ≥ 20000 | ≥ 20000
